Patent US20030224942A1, “Alkylamino-1,3,5-triazines, processes for their preparation and their use as herbicides and plant growth regulators” (priority 2001, published 2003)

Columns and labels:
[1] = test system: Cyperus spp., Echinochloa spp., Digitaria spp., Sagitaria spp. and Scirpus spp.; experiment: Action on harmful plants in rice (paddy rice conditions, visual scoring); assay type: in vivo, typical rice weeds (gramineous and broad-leaved); details: applied into the dammed water, visual scoring about three weeks after application
Outline: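 Rice and typical gramineous and broad-leaved rice weeds grown in closed pots in greenhouse under paddy conditions (2-3 cm water) to three-leaf stage (Echinochloa crus-galli 1.5-leaf), then treated with compounds. Plants kept under optimum greenhouse conditions throughout; effect scored visually.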

[2] = test system: Chenopodium spp., Papaver spp., Polygonum spp., Veronica spp. or Viola spp.; experiment: Post-emergence effect on weeds (greenhouse pot test, visual scoring); assay type: in vivo, monocotyledonous and dicotyledonous weeds; details: treated at three-leaf stage; visual scoring after about 3 to 4 weeks; application rate of 0.5 kg and less of active substance per hectare

SMILES | herbicidal activity against harmful plants which are typical for rice crops [1] | herbicidal activity post-emergence against harmful plants [2]
CCCCC#Cc1ccc(C(C)Nc2nc(N)nc(C(C)(C)F)n2)cc1 (stereo not drawn) [Product P17.1595] | very good herbicidal activity | very good herbicidal activity
C#Cc1c(C)cc(C(C)Nc2nc(N)nc(C(C)(C)F)n2)cc1C (stereo not drawn) [Product P17.348] | very good herbicidal activity | very good herbicidal activity
CC#Cc1c(F)cc(C(C)Nc2nc(N)nc(CC)n2)cc1F (stereo not drawn) [Product P7.428] | very good herbicidal activity | very good herbicidal activity
C#Cc1ccc(CNc2nc(N)nc(C(C)C)n2)cc1 [Product P11.1580] | very good herbicidal activity | very good herbicidal activity
C#Cc1ccc(C(C)Nc2nc(N)nc(C(C)(C)F)n2)cc1 (stereo not drawn) [Product P17.1580] | very good herbicidal activity | very good herbicidal activity
CC#Cc1c(F)cc(CNc2nc(N)nc(C(F)CC)n2)cc1F (stereo not drawn) [Product P26.428] | very good herbicidal activity | very good herbicidal activity
C#Cc1cccc(C(C)Nc2nc(N)nc(C(C)(C)F)n2)c1 (stereo not drawn) [Product P17.1579] | very good herbicidal activity | very good herbicidal activity
CC#Cc1ccc(C(C)Nc2nc(N)nc(C(F)CC)n2)cc1 (stereo not drawn) [Product P27.1583] | very good herbicidal activity | very good herbicidal activity
CC(C)c1nc(N)nc(NCc2ccc(C(F)=C(F)F)cc2)n1 [Product P11.1568] | very good herbicidal activity | very good herbicidal activity
Cc1nc(N)nc(NCc2cccc(C3CC3)c2)n1 [Product P1.1603] | very good herbicidal activity | very good herbicidal activity
CC#Cc1cc(C(C)Nc2nc(N)nc(C(C)(C)F)n2)ccc1F (stereo not drawn) [Product P17.384] | very good herbicidal activity | very good herbicidal activity
CCc1nc(N)nc(NC(C)c2ccc(C(F)=C(F)F)cc2)n1 (stereo not drawn) [Product P7.1568] | very good herbicidal activity | very good herbicidal activity
C#Cc1cc(C(Nc2nc(N)nc(CC)n2)C2CC2)ccc1F (stereo not drawn) [Product P9.309] | very good herbicidal activity | very good herbicidal activity
Cc1nc(N)nc(NCc2ccc(F)c(C3CC3)c2)n1 [Product P1.916] | very good herbicidal activity | very good herbicidal activity
CC#Cc1cc(C(C)Nc2nc(C)nc(N)n2)ccc1F (stereo not drawn) [Product P2.384] | very good herbicidal activity | very good herbicidal activity
C#Cc1ccc(C(Nc2nc(N)nc(C(C)F)n2)C2CC2)cc1 (stereo not drawn) [Product P24.1580] | very good herbicidal activity | very good herbicidal activity
CCC(F)c1nc(N)nc(NCc2ccc(F)c(C3CC3)c2)n1 (stereo not drawn) [Product P26.916] | very good herbicidal activity | very good herbicidal activity
C#Cc1cc(C#C)cc(C(C)Nc2nc(N)nc(C(C)F)n2)c1 (stereo not drawn) [Product P22.369] | very good herbicidal activity | very good herbicidal activity
C#Cc1cc(CNc2nc(C)nc(N)n2)ccc1F [Product P1.309] | very good herbicidal activity | very good herbicidal activity
CCC(F)c1nc(N)nc(NC(C)c2ccc(C#CC(C)O)cc2)n1 (stereo not drawn) [Product P27.1601] | very good herbicidal activity | very good herbicidal activity
CC(F)c1nc(N)nc(NCc2cc(F)c(C(F)=C(F)F)c(F)c2)n1 (stereo not drawn) [Product P21.49] | very good herbicidal activity | very good herbicidal activity

SMILES | herbicidal activity against harmful plants which are typical for rice crops [1] | herbicidal activity post-emergence against harmful plants [2]
CC#Cc1cc(C(C)Nc2nc(N)nc(C(F)CC)n2)ccc1F (stereo not drawn) [Product P27.384] | very good herbicidal activity | very good herbicidal activity
CCc1nc(N)nc(NCc2cccc(C3CC3)c2)n1 [Product P6.1603] | very good herbicidal activity | very good herbicidal activity
Cc1nc(N)nc(NC(C)c2cccc(C(F)=C(F)F)c2)n1 (stereo not drawn) [Product P2.1567] | very good herbicidal activity | very good herbicidal activity
CC#Cc1cccc(C(Nc2nc(N)nc(C(C)F)n2)C2CC2)c1 (stereo not drawn) [Product P24.1582] | very good herbicidal activity | very good herbicidal activity
CC(C)c1nc(N)nc(NC(C)c2cccc(C3CC3)c2)n1 (stereo not drawn) [Product P12.1603] | very good herbicidal activity | very good herbicidal activity
CC#Cc1ccc(C(Nc2nc(N)nc(CC)n2)C2CC2)cc1 (stereo not drawn) [Product P9.1583] | very good herbicidal activity | very good herbicidal activity
CC#Cc1cccc(CNc2nc(C)nc(N)n2)c1 [Product P1.1582] | very good herbicidal activity | very good herbicidal activity
CCc1nc(N)nc(NC(C)c2ccc(F)c(C#CC(C)O)c2)n1 (stereo not drawn) [Product P7.840] | very good herbicidal activity | very good herbicidal activity
C#Cc1cccc(C(Nc2nc(C)nc(N)n2)C2CC2)c1 (stereo not drawn) [Product P4.1579] | very good herbicidal activity | very good herbicidal activity
C#Cc1ccc(C(C)Nc2nc(N)nc(C(C)(C)F)n2)cc1C#C (stereo not drawn) [Product P17.358] | very good herbicidal activity | very good herbicidal activity
CC#Cc1c(F)cc(C(C)Nc2nc(N)nc(C(C)F)n2)cc1F (stereo not drawn) [Product P22.428] | very good herbicidal activity | very good herbicidal activity
CC#Cc1c(F)cc(CNc2nc(N)nc(C(C)F)n2)cc1F (stereo not drawn) [Product P21.428] | very good herbicidal activity | very good herbicidal activity
C#Cc1c(F)cc(C(C)Nc2nc(N)nc(C(C)F)n2)cc1F (stereo not drawn) [Product P22.352] | very good herbicidal activity | very good herbicidal activity
CCC(F)c1nc(N)nc(NC(C)c2cccc(C(F)=C(F)F)c2)n1 (stereo not drawn) [Product P27.1567] | very good herbicidal activity | very good herbicidal activity
CC(Nc1nc(N)nc(C(C)(C)F)n1)c1cccc(C(F)=C(F)F)c1 (stereo not drawn) [Product P17.1567] | very good herbicidal activity | very good herbicidal activity
Cc1nc(N)nc(NC(c2ccc(C3CC3)cc2)C2CC2)n1 (stereo not drawn) [Product P4.1604] | very good herbicidal activity | very good herbicidal activity
CC#Cc1ccc(CNc2nc(N)nc(C(C)(C)F)n2)cc1 [Product P16.1583] | very good herbicidal activity | very good herbicidal activity
C#Cc1ccc(C(Nc2nc(N)nc(C(F)CC)n2)C2CC2)cc1 (stereo not drawn) [Product P29.1580] | very good herbicidal activity | very good herbicidal activity
C#Cc1ccc(C(C)Nc2nc(N)nc(C(C)F)n2)cc1 (stereo not drawn) [Product P22.1580] | very good herbicidal activity | very good herbicidal activity
CC(C)c1nc(N)nc(NC(C)c2cc(F)c(C3CC3)c(F)c2)n1 (stereo not drawn) [Product P12.960] | very good herbicidal activity | very good herbicidal activity
CCCCC#Cc1cc(C(C)Nc2nc(N)nc(C(C)F)n2)ccc1F (stereo not drawn) [Product P22.688] | very good herbicidal activity | very good herbicidal activity
